Laboratory results published in patent US6239130A, “Phosphodiesterase 4-inhibiting diazepinoindolones” (Warner-Lambert Company, priority 1997, dated 2001).
pIC50: −log10 of the molar value.

Tested on: PDE4 enzyme of human origin
Assay: PDE4-inhibiting activity on an enzyme preparation obtained from the U937 cell line
Assay type: biochemical
Protocol: In the case of the PDE4 enzymes, this value is compared with that of rolipram, a specific PDE4 inhibitor. […] Measurement of the enzyme activity of the different types of PDE, and especially of the PDE4 enzymes, is then carried out according to a method adapted from W. J. Thompson, ibidem.

Row | SMILES | pIC50
1 | Cc1cc2c3c(c1)C(c1ccccc1)=NC(n1cnc4ccccc4c1=O)C(=O)N3CC2 (stereo not shown) [Example 18, 3(9-Methyl-3-oxo-4H-quinazolin-3-yl)-1-phenyl-6,7-dihydro-3H-[1,4]diazepino[6,7,1-hi]indol-4one] | 6.08
2 | Cc1cc2c3c(c1)C(c1ccccc1)=N[C@@H](n1c(C)nc4cnccc4c1=O)C(=O)N3CC2 [Example 19, (3S)-3-(2-Methyl-4-oxo-4H-pyrido[3,4-d]-pyrimidin-3-yl)-9-methyl-1-phenyl-6,7-dihydro-3H-[1,4]diazepino[6,7,1-hi]indol-1-one] | 6.71
3 | Cc1ccc2nc(C)n(C3N=C(c4ccccc4)c4cc([N+](=O)[O-])cc5c4N(CC5)C3=O)c(=O)c2c1 (stereo not shown) [Example 22, 3-(2,6-Dimethyl-4-oxo-4H-quinazolin-3-yl)-9-nitro-1-phenyl-6,7-dihydro-3H-[1,4]diazepino-[6,7,1-hi]indol-4-one] | 5.76
4 | Cc1ccc2c(=O)n(C3N=C(c4ccccc4)c4cc([N+](=O)[O-])cc5c4N(CC5)C3=O)c(C)nc2c1 (stereo not shown) [Example 23, 3-(2,7-Dimethyl-4-oxo-4H-quinazolin-3-yl)-9-nitro-1-phenyl-6,7-dihydro-3H-[1,4]diazepino-[6,7,1-hi]indol-4-one] | 6.30
5 | Cc1cccc2c(=O)n(C3N=C(c4ccccc4)c4cc([N+](=O)[O-])cc5c4N(CC5)C3=O)c(C)nc12 (stereo not shown) [Example 24, 3-(2,8-Dimethyl-4-oxo-4H-quinazolin-3-yl)-9-nitro-1-phenyl-6,7-dihydro-3H-[1,4]diazepino-[6,7,1-hi]indol-4-one] | 4.51
6 | Cc1cc(C)c2nc(C)n(C3N=C(c4ccccc4)c4cc([N+](=O)[O-])cc5c4N(CC5)C3=O)c(=O)c2c1 (stereo not shown) [Example 25, 3(2,6,8-Trimethyl-4-oxo-4H-quinazolin-3-yl)-9-nitro-1-phenyl-6,7-dihydro-3H-[1,4]diazepino[6,7,1-hi]indol-4-one] | < 4.00
7 | Cc1cc(Br)c2nc(C)n(C3N=C(c4ccccc4)c4cc([N+](=O)[O-])cc5c4N(CC5)C3=O)c(=O)c2c1 (stereo not shown) [Example 26, 3-(8-Bromo-2,6-dimethyl-4-oxo-4H-quinazolin-3-yl)-9-nitro-1-phenyl-6,7-dihydro-3H-[1,4]diazepino-[6,7,1-hi]indol-4-one] | 4.04
8 | Cc1nc2ccccc2c(=O)n1[C@@H]1N=C(c2ccccc2)c2cc(N)cc3c2N(CC3)C1=O [Example 28, (3S)-9-Amino-3-(2-methyl-4oxo-4H-quinazolin-3-yl)-1-phenyl-6,7-dihydro-3H-[1,4]diazepino[6,7,1-hi]indol-4-one] | 8.30
9 | COC(=O)c1ccc2c(=O)n(C3N=C(c4ccccc4)c4cc(N)cc5c4N(CC5)C3=O)c(C)nc2c1 (stereo not shown) [Example 28A, Methyl 3-(9-amino-4-oxo-1-phenyl-3,4,6,7-tetrahydro-[1,4]diazepino[6,7,1-hi]indol-3-yl)-2-methyl-4-oxo-3,4-dihydroquinazoline-7-carboxylate] | 8.30
10 | COC(=O)c1ccc2c(=O)n(C3N=C(c4ccccc4)c4cc(N)cc5c4N(CC5)C3=O)c(C)nc2c1 (stereo not shown) [Example 28B] | 8.52
11 | COC(=O)c1ccc2c(=O)n(C3N=C(c4ccccc4)c4cc(N)cc5c4N(CC5)C3=O)c(C)nc2c1 (stereo not shown) [Example 28C] | 7.15
12 | Cc1nc2cc(C(=O)O)ccc2c(=O)n1C1N=C(c2ccccc2)c2cc(N)cc3c2N(CC3)C1=O (stereo not shown) [Example 28D, 3-(9-Amino-4oxo-1-phenyl-3,4,6,7-tetrahydro[1,4]diazepino[6,7,1-hi]indol-3-yl)-2-methyl-4-oxo-3,4-dihydroquinazoline-7-carboxylic acid] | 8.05
13 | Cc1nc2ccccc2c(=O)n1C1N=C(c2ccccc2)c2cc(N)cc3c2N(CC3)C1=O (stereo not shown) [Example 29, 9-Amino-3-(2-methyl-4-oxo-4H-quinazolin-3-yl)-1-phenyl-6,7-dihydro-3H-[1,4]diazepino[6,7,1-hi]indol-4-one] | 7.89
14 | Cc1cccc2nc(C)n(C3N=C(c4ccccc4)c4cc(N)cc5c4N(CC5)C3=O)c(=O)c12 (stereo not shown) [Example 30, 9-Amino-3-(2,5-dimethyl-4-oxo-4H-quinazolin-3-yl)-1-phenyl-6,7-dihydro-3H-[1,4]diazepino[6,7,1-hi]indol-4-one] | 8.10
15 | Cc1ccc2nc(C)n(C3N=C(c4ccccc4)c4cc(N)cc5c4N(CC5)C3=O)c(=O)c2c1 (stereo not shown) [Example 31, 9-Amino-3-(2,6dimethyl-4-oxo-4H-quinazolin-^3-yl)-1-phenyl-6,7-dihydro-3H-[1,4]diazepino[6,7,1-hi]indol-4-one] | 7.06
16 | Cc1cccc2c(=O)n(C3N=C(c4ccccc4)c4cc(N)cc5c4N(CC5)C3=O)c(C)nc12 (stereo not shown) [Example 32, 9-Amino-3-(2,8-dimethyl-4-oxo-4H-quinazolin-3-yl)-l1-phenyl-6,7-dihydro-3H-[1,4]diazepino[6,7,1-hi]indole-4-one] | 7.26

Row | SMILES | pIC50
17 | Cc1cc(C)c2nc(C)n(C3N=C(c4ccccc4)c4cc(N)cc5c4N(CC5)C3=O)c(=O)c2c1 (stereo not shown) [Example 33, 9-Amino-3-(2,6,8-trimethyl-4-oxo-4H-quinazolin-3-yl)-1-phenyl-6,7-dihydro-3H-[1,4]diazepino[6,7,1-hi]indol-4-one] | 6.81
18 | Cc1nc2cnccc2c(=O)n1C1N=C(c2ccccc2)c2cc(N)cc3c2N(CC3)C1=O (stereo not shown) [Example 34, 9-Amino-3-(2-methyl-4-oxo-4H-pyrido[3,4-d]pyrimidin-3-yl)-1-phenyl-6,7-dihydro-3H-[1,4]diazepino[6,7,1-hi]indol-4-one] | 7.38
19 | Cc1nc2cccc(Cl)c2c(=O)n1C1N=C(c2ccccc2)c2cc(N)cc3c2N(CC3)C1=O (stereo not shown) [Example 34B, 9-Amino-3-(5-chloro-2-methyl-4-oxo-4H-quinazolin-3-yl)-1-phenyl-6,7-dihydro-3H-[1,4]diazepino[6,7,1-hi]indol-4-one] | 8.52
20 | Cc1cc2c3c(c1)C(c1ccccc1)=NC(n1c(C)nc4cc(C(=O)N[C@H](C(=O)O)C(C)C)ccc4c1=O)C(=O)N3CC2 (stereo partly shown) [Example 35, N-(2-methyl-3-(9-methyl-4-oxo-1-phenyl-3,4,6,7-tetrahydro[1,4]diazepino[6,7,1-hi]indol-3-yl)-4-oxo-3,4-dihydroquinazoline-7-carbonyl)valine] | 6.97
21 | Cc1cc2c3c(c1)C(c1ccccc1)=NC(n1c(C)nc4cc(C(=O)N[C@@H](Cc5ccc(O)cc5)C(=O)O)ccc4c1=O)C(=O)N3CC2 (stereo partly shown) [Example 35A, N-(2-Methyl-3-(9-methyl-4-oxo-1-phenyl-3,4,6,7-tetrahydro[1,4]diazepino[6,7,1-hi]indol-3-yl)-4-oxo-3,4-dihydroquinazoline-7-carboxyl)tyrosine] | 7.06
22 | Cc1cc2c3c(c1)C(c1ccccc1)=NC(n1c(C)nc4cc(C(=O)N[C@@H](C)C(=O)O)ccc4c1=O)C(=O)N3CC2 (stereo partly shown) [Example 35B] | 6.72
23 | Cc1cc2c3c(c1)C(c1ccccc1)=NC(n1c(C)nc4cc(C(=O)N[C@@H](Cc5ccccc5)C(=O)O)ccc4c1=O)C(=O)N3CC2 (stereo partly shown) [Example 35C, N-(2-Methyl-3-(9-methyl-4-oxo-1-phenyl-3,4,6,7-tetrahydrol[1,4]diazepino[6,7,1-hi]indol-3-yl)-4-oxo-3,4-dihydroquinazoline-7-carboxyl)phenylalanine] | 6.95
24 | Cc1cc2c3c(c1)C(c1ccccc1)=NC(n1c(C)nc4cc(C(=O)NCC(=O)O)ccc4c1=O)C(=O)N3CC2 (stereo not shown) [Example 35D, N-(2-Methyl-3-(9-methyl-4-oxo-1-phenyl-3,4,6,7-tetrahydro[1,4]diazepino[6,7,1-hi]indol-3-yl)-4-oxo-3,4-dihydroquinazoline-7-carboxyl)glycine] | 7.19
25 | Cc1cc2c3c(c1)C(c1ccccc1)=NC(n1c(C)nc4cc(C(=O)N[C@@H](CC(C)C)C(=O)O)ccc4c1=O)C(=O)N3CC2 (stereo partly shown) [Example 35E, N-(2-Methyl-3-(9-methyl-4-oxo-1-phenyl-3,4,6,7-tetrahydro[1,4]diazepino[6,7,1-hi]indol-3-yl)-4-oxo-3,4-dihydroquinazoline-7-carboxyl)leucine] | 7.09
26 | Cc1cc2c3c(c1)C(c1ccccc1)=NC(n1c(C)nc4cc(C(=O)N[C@@H](CC(=O)O)C(=O)O)ccc4c1=O)C(=O)N3CC2 (stereo partly shown) [Example 35F, N-(2-Methyl-3-(9-methyl-4-oxo-1-phenyl-3,4,6,7-tetrahydro[1,4]diazepino[6,7,1-hi]indol-3-yl)-4-oxo-3,4-dihydroquinazoline-7-carboxyl)aspartic acid] | 6.26
27 | Cc1cc2c3c(c1)C(c1ccccc1)=NC(n1c(C)nc4cc(C(=O)N5CCC[C@H]5C(=O)O)ccc4c1=O)C(=O)N3CC2 (stereo partly shown) [Example 35G, N-(2-Methyl-3-(9-methyl-4-oxo-1-phenyl-3,4,6,7-tetrahydro[1,4]diazepino[6,7,1-hi]indol-3-yl)-4-oxo-3,4-dihydroquinazoline-7-carboxyl)proline] | 6.54
28 | Cc1cc2c3c(c1)C(c1ccccc1)=NC(n1c(C)nc4cc(C(=O)N[C@@H](CCC(=O)O)C(=O)O)ccc4c1=O)C(=O)N3CC2 (stereo partly shown) [Example 35H, N-(2-Methyl-3-(9-methyl-4-oxo-1-phenyl-3,4,6,7-tetrahydro[1,4]diazepino[6,7,1-hi]indol-3-yl)-4-oxo-3,4-dihydroquinazoline-7-carboxyl)glutamic acid] | 6.66
29 | Cc1cc2c3c(c1)C(c1ccccc1)=NC(n1c(C)nc4cc(C(=O)N[C@@H](CCCCN)C(=O)O)ccc4c1=O)C(=O)N3CC2 (stereo partly shown) [Example 35I] | 6.92
30 | CCOC(=O)[C@H](Cc1ccccc1)NC(=O)c1ccc2c(=O)n(C3N=C(c4ccccc4)c4cc(C)cc5c4N(CC5)C3=O)c(C)nc2c1 (stereo partly shown) [Example 36, Ethyl 2-{[2-methyl-3-(9-methyl-4-oxo-1-phenyl-3,4,6,7-tetrahydro[1,4]diazepino[6,7,1-hi]indol-3-yl)-4-oxo-3,4-dihydroquinazolin0e-7-carbonyl]amino}-3-phenyl-(L)-propionate] | 6.51
31 | COc1ccc(C2CNC(=O)C2)cc1OC1CCCC1 (stereo not shown) [rolipram, reference compound] | 6.10
